US8329645B2, “Polymyxin derivatives and uses thereof” (priority 2008, dated 2012)

Experiments:
E. coli ATCC25922 = conditions: E. coli ATCC25922
Procedure: (§1) MICs were determined by using E-strips (Biodisk Ltd., Solna, Sweden) according to the manufacturer's instructions.
(§2) The strains originated from ATCC (11 strains), CCUG (11 strains), and NCTC (The National Collection of Type Cultures, Colindale, U.K.; 2 strains). Eight strains (the F-strains) were purchased from Mobidiag Ltd., Helsinki, Finland.

K. pneumoniae ATCC13883 = conditions: K. pneumoniae ATCC13883
Procedure: as §1, §2

E. cloacae ATCC23355 = assay: E-test MIC with or without NAB7061 (4 μg/ml), Mueller-Hinton agar; type: cell-based, Enterobacter cloacae
Procedure: as §1, §2

E. coli IH3080 = assay: as above; type: cell-based, Escherichia coli
Procedure: as §1, §2

[1] = test system: E. coli (ATCC25922 and IH3080), K. pneumoniae ATCC13883, and E. cloacae ATCC23355; assay: E-test sensitization by NAB7061, range over the tested strains; type: cell-based; conditions: four tested strains
Procedure: as §1

P. aeruginosa ATCC 27853 = assay: E-test MIC of antibiotics on Mueller Hinton agar containing increasing concentrations of NAB739; type: cell-based, Pseudomonas aeruginosa
[2] = test system: both Acinetobacter strains (ATCC 19606 and F264); assay: E-test sensitization by NAB739, both strains; type: cell-based, Acinetobacter baumannii
A. baumannii ATCC19606 = assay: E-test MIC of antibiotics on Mueller Hinton agar containing increasing concentrations of NAB739; type: cell-based, Acinetobacter baumannii
A. baumannii F264 = assay: as above; type: cell-based, Acinetobacter baumannii
[3] = molecular target: brush-border membrane (BBM) from the renal cortex; assay: Inhibition of binding of radiolabelled gentamycin to brush-border membrane vesicles; conditions: rat renal cortex BBM vesicles; 20 μM [3H] gentamycin; 60 min at 4° C.
Excerpt: The binding of the compounds according to this invention to isolated brush-border membrane (BBM) from the renal cortex can be measured indirectly by measuring their ability to inhibit the binding of radiolabelled gentamycin to BBM. Accordingly, the compounds according to this invention that have less affinity to BBM than for example polymyxin B inhibit the binding of radiolabelled gentamycin to a lesser degree than does polymyxin B.
BBM was isolated from the renal cortex of male albino rats by using the Mg^2+/EGTA precipitation technique as described by Nagai et al. (2006). The binding of gentamycin was measured, according to the method described by Nagai et al. (2006) by incubating BBM vesicles (20 μl) in 10 mM HEPES (pH 7.5) with 300 mM mannitol in the presence of 20 μM [^3H] gentamycin (American Radiolabeled Chemicals, Inc. (St. Louis, Mo., U.S.A.) with or without the compound to be tested or a positive control. After an incubation of 60 min at 4° C., 1 ml of ice-cold buffer described above was added, and the mixture was filtered through a Millipore filter (0.45 μm; HAWP). The filter was washed with the buffer and the radioactivity remaining in the filter was measured by using a liquid scintillation counter. The IC50 values were determined as in Nagai et al. (2006) using the Hill equation.

| Compound | Sensitization factor to antibiotic (MIC without / with 4 μg/ml of NAB 7061) (E. coli ATCC25922) | Sensitization factor to antibiotic (MIC without / with 4 μg/ml of NAB 7061) (K. pneumoniae ATCC13883) | Sensitization factor to antibiotic (MIC without / with 4 μg/ml of NAB 7061) (E. cloacae ATCC23355) | Sensitization factor to antibiotic (MIC without / with 4 μg/ml of NAB 7061) (E. coli IH3080) | Sensitization factor to antibiotic at 4 μg/ml of NAB7061, range over the tested strains [1] | MIC of antibiotic in the presence of NAB739 (P. aeruginosa ATCC 27853; NAB 739 0 μg/ml) | MIC of antibiotic in the presence of NAB739 (P. aeruginosa ATCC 27853; NAB 739 0.5 μg/ml) | MIC of antibiotic in the presence of NAB739 (P. aeruginosa ATCC 27853; NAB 739 1 μg/ml) | MIC of antibiotic in the presence of NAB739 (P. aeruginosa ATCC 27853; NAB 739 2 μg/ml) | MIC of antibiotic in the presence of NAB739 (P. aeruginosa ATCC 27853; NAB 739 […]) | sensitization factors to antibiotic at NAB739 0.5 μg/ml [2] | MIC of antibiotic in the presence of NAB739 (A. baumannii ATCC19606; NAB 739 0 μg/ml) | MIC of antibiotic in the presence of NAB739 (A. baumannii ATCC19606; NAB 739 0.5 μg/ml) | MIC of antibiotic in the presence of NAB739 (A. baumannii ATCC19606; NAB 739 1 μg/ml) | MIC of antibiotic in the presence of NAB739 (A. baumannii F264; NAB 739 0 μg/ml) | MIC of antibiotic in the presence of NAB739 (A. baumannii F264; NAB 739 0.5 μg/ml) | MIC of antibiotic in the presence of NAB739 (A. baumannii F264; NAB 739 1 μg/ml) | IC50 [3] |
| --- | --- | --- | --- | --- | --- | --- | --- | --- | --- | --- | --- | --- | --- | --- | --- | --- | --- | --- |
| CC[C@H]1OC(=O)[C@H](C)[C@@H](O[C@H]2C[C@@](C)(OC)[C@@H](O)[C@H](C)O2)[C@H](C)[C@@H](O[C@@H]2O[C@H](C)C[C@H](N(C)C)[C@H]2O)[C@](C)(O)C[C@@H](C)CN(C)[C@H](C)[C@@H](O)[C@]1(C)O [Azithromycin] | 24-64 | 31-43 | 32 | 31-94 | 31-94 |  |  |  |  |  |  |  |  |  |  |  |  |  |
| CC(=O)O[C@H]1C[C@@]2(C)[C@@H](C[C@@H](O)[C@H]3[C@@]4(C)CC[C@@H](O)[C@@H](C)[C@@H]4CC[C@@]32C)/C1=C(\CCC=C(C)C)C(=O)O [Fusidic acid] | >43 | >4 | >8 | >43 |  | >256 µg/mL | >256 µg/mL | >256 µg/mL | 192 µg/mL | >256 µg/mL | 64-85 | >256 µg/mL | 4 µg/mL | 1 µg/mL | >256 µg/mL | 3 µg/mL | 1 µg/mL |  |
| C/C(=C\C(=O)OCCCCCCCCC(=O)O)C[C@@H]1OC[C@H](C[C@@H]2O[C@H]2[C@@H](C)[C@H](C)O)[C@@H](O)[C@H]1O [Mupirocin] | 64-170 | 24-32 | 250-512 | 64-85 | 24-512 |  |  |  |  |  |  |  |  |  |  |  |  |  |
| CN[C@H](CC(C)C)C(=O)N[C@H]1C(=O)N[C@@H](CC(N)=O)C(=O)N[C@H]2C(=O)N[C@H]3C(=O)N[C@H](C(=O)N[C@H](C(=O)O)c4cc(O)cc(O)c4-c4cc3ccc4O)[C@H](O)c3ccc(c(Cl)c3)Oc3cc2cc(c3O[C@@H]2O[C@H](CO)[C@@H](O)[C@H](O)[C@H]2O[C@H]2C[C@](C)(N)[C@H](O)[C@H](C)O2)Oc2ccc(cc2Cl)[C@H]1O [Vancomycin] | 5 | 1 | 32 | 2.5 |  | >256 µg/mL | >256 µg/mL | >256 µg/mL | >256 µg/mL | >256 µg/mL | 85 | >256 µg/mL | 3 µg/mL | 1 µg/mL | >256 µg/mL | 3 µg/mL | 1 µg/mL |  |
| gentamycin [reference compound] |  |  |  |  |  |  |  |  |  |  |  |  |  |  |  |  |  | 90.2 ± 9.7 µM |
